From ChEMBL document CHEMBL5120880, “Peptidomimetics: An Overview of Recent Medicinal Chemistry Efforts toward the Discovery of Novel Small Molecule Inhibitors” (J Med Chem, 2022)
Converted amounts (≈) assume the structure as drawn.

Columns and labels:
[1] = test system: Staphylococcus epidermidis; assay: Antimicrobial activity against Staphylococcus epidermidis KCTC 1917 assessed as minimal inhibitory concentration incubated for 18 hrs; format: functional
[2] = test system: Pseudomonas aeruginosa; assay: Antimicrobial activity against Pseudomonas aeruginosa KCTC 1637 assessed as minimal inhibitory concentration incubated for 18 hrs; format: functional
[3] = test system: Staphylococcus aureus; assay: Antimicrobial activity against Staphylococcus aureus KCTC 1621 assessed as minimal inhibitory concentration incubated for 18 hrs; format: functional
[4] = test system: Escherichia coli; assay: Antimicrobial activity against Escherichia coli KCTC 1682 assessed as minimal inhibitory concentration incubated for 18 hrs; format: functional
[5] = test system: Escherichia coli; assay: Antibacterial activity against Escherichia coli assessed as minimal inhibitory concentration incubated for 24 hrs; format: functional
[6] = test system: Bacillus subtilis; assay: Antibacterial activity against Bacillus subtilis assessed as minimal inhibitory concentration incubated for 72 hrs; format: functional
[7] = test system: Staphylococcus aureus; assay: Antibacterial activity against Staphylococcus aureus MRSA assessed as minimal inhibitory concentration incubated for 24 hrs; format: functional
[8] = test system: Salmonella enterica; assay: Antibacterial activity against Salmonella enterica assessed as minimal inhibitory concentration incubated for 24 hrs; format: functional
[9] = test system: Staphylococcus aureus; assay: Antibacterial activity against Staphylococcus aureus assessed as minimal inhibitory concentration incubated for 24 hrs; format: functional
[10] = test system: Feline infectious peritonitis virus; assay: microbe, parasite or virus in culture; details: Alphacoronavirus 1
[11] = test system: Murine hepatitis virus; assay: microbe, parasite or virus in culture; details: Murine coronavirus
[12] = test system: Middle East respiratory syndrome-related coronavirus; assay: microbe, parasite or virus in culture
[13] = test system: SARS-CoV-2; assay: microbe, parasite or virus in culture; details: Severe acute respiratory syndrome coronavirus 2
[14] = test system: SARS-CoV; assay: microbe, parasite or virus in culture; details: Severe acute respiratory syndrome-related coronavirus
[15] = test system: Middle East respiratory syndrome-related coronavirus; assay: Antiviral activity against MERS-CoV by cell based assay; format: functional, organism-based
[16] = test system: Bacillus subtilis; assay: Antibacterial activity against Bacillus subtilis DSM10 assessed as minimal inhibitory concentration by microdilution assay; format: functional
[17] = test system: Mycolicibacterium phlei; assay: Antibacterial activity against Mycobacterium phlei DSM750 assessed as minimal inhibitory concentration by microdilution assay; format: functional
[18] = test system: Escherichia coli; assay: Antibacterial activity against Escherichia coli BW25113 assessed as minimal inhibitory concentration by microdilution assay; format: functional
[19] = test system: Salmonella typhimurium; assay: Antibacterial activity against Salmonella typhimurium TA100 assessed as minimal inhibitory concentration by microdilution assay; format: functional, Salmonella enterica subsp. enterica serovar Typhimurium; details: Salmonella enterica

Q: With `CC(=O)NCCNc1nc(NCC(=O)NCCNc2nc(NCC(N)=O)nc(N(Cc3ccccc3)Cc3ccccc3)n2)nc(N(CCCN)CCCN)n1` as the compound, how does the MIC [1] read?
A: Its MIC is 32 µg/mL (≈ 41.5 µM).

Q: And the MIC [2]?
A: The MIC was 32 µg/mL (≈ 41.5 µM).

Q: And the MIC [3]?
A: Its MIC is 32 µg/mL (≈ 41.5 µM).

Q: And the MIC [4]?
A: Its MIC is 64 µg/mL (≈ 82.9 µM).

Q: How did the MIC [5] turn out when `CCCCCCCCCCCCCCCCNC(=O)[C@@H](N)Cc1ccccc1` was run?
A: Its MIC is 1250 µg/mL (≈ 3220 µM).

Q: And the MIC [6]?
A: The MIC was 625 µg/mL (≈ 1610 µM).

Q: And the MIC [7]?
A: Its MIC is 1250 µg/mL (≈ 3220 µM).

Q: And the MIC [8]?
A: Its MIC is 625 µg/mL (≈ 1610 µM).

Q: What about the MIC [9] of the same compound?
A: The MIC was 1250 µg/mL (≈ 3220 µM).

Q: How did the EC50 [10] turn out when `CCCC1CCC(OC(=O)N[C@@H](CC(C)C)C(=O)N[C@@H](C[C@H]2CCNC2=O)C(O)S(=O)(=O)O)CC1` (stereo partly specified) was run?
A: The EC50 was 170 nM.

Q: What about the EC50 [11] of the same compound?
A: The EC50 was 160 nM.

Q: And the IC50 [12]?
A: The IC50 was 100 nM.

Q: And the IC50 [13]?
A: Its IC50 is 1600 nM.

Q: `CC(C)C[C@H](NC(=O)OCC1CCC(F)(F)CC1)C(=O)N[C@@H](C[C@H]1CCNC1=O)C(O)S(=O)(=O)O` (stereo partly specified) was tested. Which IC50 [14] did it give?
A: The IC50 was 1100 nM.

Q: And the EC50 [10]?
A: The EC50 was 70 nM.

Q: And the EC50 [11]?
A: Its EC50 is 160 nM.

Q: And the IC50 [12]?
A: Its IC50 is 100 nM.

Q: What about the IC50 [13] of the same compound?
A: Its IC50 is 1100 nM.

Q: How did the EC50 [15] turn out when `CC(C)C[C@H](NC(=O)OCC1CCC(F)(F)CC1)C(=O)N[C@H](C=O)C[C@H]1CCNC1=O` was run?
A: The EC50 was 30 nM.

Q: What about the EC50 [10] of the same compound?
A: The EC50 was 80 nM.

Q: And the IC50 [13]?
A: The IC50 was 900 nM.

Q: Which MIC [16] does the source give for `COc1c(/C=C(\F)c2ccc(NC(=O)[C@H](CC#N)NC(=O)c3ccc(NC(=O)/C(C)=C/c4ccc(O)cc4)cc3)cc2)ccc(C(=O)Nc2ccc(C(=O)O)c(O)c2OC)c1O` here?
A: The MIC was 0.031 µg/mL (≈ 0.0367 µM).

Q: And the MIC [17]?
A: The MIC was 0.25 µg/mL (≈ 0.296 µM).

Q: What about the MIC [18] of the same compound?
A: Its MIC is under 0.063 µg/mL.

Q: What about the MIC [19] of the same compound?
A: Its MIC is 0.031 µg/mL (≈ 0.0367 µM).

Q: With `CC(=O)NCCNc1nc(NCC(=O)NCCNc2nc(NCC(=O)NCCNc3nc(NCC(N)=O)nc(N(Cc4ccccc4)Cc4ccccc4)n3)nc(N(CCCN)CCCN)n2)nc(N(Cc2ccccc2)Cc2ccccc2)n1` as the compound, how does the MIC [1] read?
A: The MIC was 64 µg/mL (≈ 55.1 µM).

Q: And the MIC [2]?
A: Its MIC is 32 µg/mL (≈ 27.6 µM).

Q: What about the MIC [3] of the same compound?
A: The MIC was 64 µg/mL (≈ 55.1 µM).

Q: And the MIC [4]?
A: Its MIC is 128 µg/mL (≈ 110 µM).

Q: With `CCCCCCCCCCCCNC(=O)[C@@H](N)C(C)CC` (stereo partly specified) as the compound, how does the MIC [5] read?
A: Its MIC is 2 µg/mL (≈ 6.7 µM).

Q: What about the MIC [6] of the same compound?
A: Its MIC is 510 µg/mL (≈ 1710 µM).

Q: What about the MIC [7] of the same compound?
A: The MIC was 4 µg/mL (≈ 13.4 µM).

Q: And the MIC [8]?
A: The MIC was 5 µg/mL (≈ 16.7 µM).

Q: And the MIC [9]?
A: The MIC was 2.5 µg/mL (≈ 8.37 µM).

Q: With `CCCCCCCCCCCCNC(=O)[C@H](N)Cc1ccccc1` as the compound, how does the MIC [5] read?
A: Its MIC is 5 µg/mL (≈ 15 µM).

Q: What about the MIC [6] of the same compound?
A: Its MIC is 8.3 µg/mL (≈ 25 µM).

Q: What about the MIC [7] of the same compound?
A: The MIC was 20 µg/mL (≈ 60.1 µM).

Q: And the MIC [8]?
A: The MIC was 10 µg/mL (≈ 30.1 µM).

Q: What about the MIC [9] of the same compound?
A: Its MIC is 5 µg/mL (≈ 15 µM).

Q: `COc1c(/C=C/c2ccc(NC(=O)[C@H](CC#N)NC(=O)c3ccc(NC(=O)/C(C)=C/c4ccc(O)cc4)cc3)cc2)ccc(C(=O)Nc2ccc(C(=O)O)c(O)c2OC)c1O` was tested. Which MIC [16] did it give?
A: Its MIC is 0.063 µg/mL (≈ 0.0763 µM).

Q: What about the MIC [17] of the same compound?
A: Its MIC is 0.5 µg/mL (≈ 0.605 µM).

Q: And the MIC [18]?
A: The MIC was 0.125 µg/mL (≈ 0.151 µM).

Q: And the MIC [19]?
A: Its MIC is 0.063 µg/mL (≈ 0.0763 µM).

Q: With `CC(C)C[C@H](NC(=O)OC1CCC(F)(F)CC1)C(=O)N[C@@H](C[C@H]1CCNC1=O)C(O)S(=O)(=O)O` (stereo partly specified) as the compound, how does the IC50 [14] read?
A: Its IC50 is 2200 nM.

Q: And the EC50 [15]?
A: Its EC50 is 210 nM.

Q: What about the EC50 [10] of the same compound?
A: The EC50 was 120 nM.

Q: And the EC50 [11]?
A: Its EC50 is 110 nM.

Q: What about the IC50 [12] of the same compound?
A: Its IC50 is 80 nM.

Q: And the IC50 [13]?
A: The IC50 was 1600 nM.

Q: What does the source list for `COc1c(NC(=O)c2ccc(-c3cc4ccc(-c5ccc(NC(=O)[C@H](CC#N)NC(=O)c6ccc(NC(=O)/C(C)=C/c7ccc(O)cc7)cc6)cc5)cc4o3)c(OC)c2O)ccc(C(=O)O)c1O`?
A: MIC [16]: 0.25 µg/mL (≈ 0.273 µM); MIC [17]: 1 µg/mL (≈ 1.09 µM); MIC [18]: 1 µg/mL (≈ 1.09 µM); MIC [19]: 0.125 µg/mL (≈ 0.136 µM)

Q: Which results are given for `CCCCCCCCNC(=O)[C@@H](N)Cc1ccccc1`?
A: MIC [5]: 39 µg/mL (≈ 141 µM); MIC [6]: 78 µg/mL (≈ 282 µM); MIC [7]: 52 µg/mL (≈ 188 µM); MIC [8]: 62.5 µg/mL (≈ 226 µM); MIC [9]: 39 µg/mL (≈ 141 µM)

Q: Which MIC [1] does the source give for `CC(=O)NCCNc1nc(NCC(=O)NCCNc2nc(NCC(=O)NCCNc3nc(NCC(N)=O)nc(N(CCCN)CCCN)n3)nc(N(Cc3ccccc3)Cc3ccccc3)n2)nc(N(CCCN)CCCN)n1` here?
A: The MIC was 16 µg/mL (≈ 14.6 µM).

Q: What about the MIC [2] of the same compound?
A: The MIC was 16 µg/mL (≈ 14.6 µM).

Q: And the MIC [3]?
A: Its MIC is 16 µg/mL (≈ 14.6 µM).

Q: What about the MIC [4] of the same compound?
A: The MIC was 16 µg/mL (≈ 14.6 µM).

Q: With `CC(=O)NCCNc1nc(NCC(=O)NCCNc2nc(NCC(=O)NCCNc3nc(NCC(=O)NCCNc4nc(NCC(N)=O)nc(N(Cc5ccccc5)Cc5ccccc5)n4)nc(N(CCCN)CCCN)n3)nc(N(Cc3ccccc3)Cc3ccccc3)n2)nc(N(CCCN)CCCN)n1` as the compound, how does the MIC [1] read?
A: Its MIC is 16 µg/mL (≈ 10.8 µM).

Q: And the MIC [2]?
A: The MIC was 16 µg/mL (≈ 10.8 µM).

Q: And the MIC [3]?
A: The MIC was 16 µg/mL (≈ 10.8 µM).

Q: And the MIC [4]?
A: The MIC was 16 µg/mL (≈ 10.8 µM).

Q: How did the IC50 [14] turn out when `CCCCC1CCC(OC(=O)N[C@@H](CC(C)C)C(=O)N[C@@H](C[C@H]2CCNC2=O)C(O)S(=O)(=O)O)CC1` (stereo partly specified) was run?
A: The IC50 was 1000 nM.

Q: And the EC50 [15]?
A: The EC50 was 530 nM.

Q: And the EC50 [10]?
A: The EC50 was 170 nM.

Q: What about the EC50 [11] of the same compound?
A: Its EC50 is 130 nM.

Q: And the IC50 [12]?
A: The IC50 was 130 nM.

Q: And the IC50 [13]?
A: The IC50 was 1100 nM.

Q: With `CCCCCCCCCCNC(=O)[C@@H](N)Cc1ccccc1` as the compound, how does the MIC [5] read?
A: Its MIC is 10 µg/mL (≈ 32.8 µM).

Q: What about the MIC [6] of the same compound?
A: The MIC was 39 µg/mL (≈ 128 µM).

Q: What about the MIC [7] of the same compound?
A: Its MIC is 20 µg/mL (≈ 65.7 µM).

Q: And the MIC [8]?
A: The MIC was 15.6 µg/mL (≈ 51.2 µM).

Q: And the MIC [9]?
A: The MIC was 13.3 µg/mL (≈ 43.7 µM).

Q: What does the source list for `CCCCCCCCCCCCNC(=O)[C@@H](N)C(C)C`?
A: MIC [5]: 1.67 µg/mL (≈ 5.87 µM); MIC [6]: 4.2 µg/mL (≈ 14.8 µM); MIC [7]: 8.3 µg/mL (≈ 29.2 µM); MIC [8]: 6.5 µg/mL (≈ 22.8 µM); MIC [9]: 3.3 µg/mL (≈ 11.6 µM)

Q: Which MIC [16] does the source give for `COc1c(NC(=O)c2ccc(-c3ccc4[nH]c(-c5ccc(NC(=O)[C@H](CC#N)NC(=O)c6ccc(NC(=O)/C(C)=C/c7ccc(O)cc7)cc6)cc5)nc4c3)c(OC)c2O)ccc(C(=O)O)c1O` here?
A: Its MIC is 2 µg/mL (≈ 2.18 µM).

Q: What about the MIC [17] of the same compound?
A: Its MIC is 8 µg/mL (≈ 8.73 µM).

Q: And the MIC [18]?
A: The MIC was 0.25 µg/mL (≈ 0.273 µM).

Q: What about the MIC [19] of the same compound?
A: The MIC was 0.063 µg/mL (≈ 0.0688 µM).
